Ends that are not written are not given here.
Legend:
[1] = system: human coronary artery endothelial cells; assay: Boyden chamber migration, coronary artery endothelial cells; format: cell-based; settings: for average number of cells that migrated ± SEM: HCAEC
Experimental: (§1) Human umbilical vein endothelial cells (HUVECs) were isolated from freshly delivered cords according to Jaffe et al. (J. Clin. Invest. 52: 2745, 1973) and grown on Nunclon dishes (Nunc, Denmark) in RPMI 1640 (Life Technologies, Gaithersburg, Md.) supplemented with 20% bovine calf serum (Hyclone Laboratories, Logan Utah), 100 U/ml penicillin/streptomycin (Life Technologies, Gaithersburg, Md.), 50 μg/ml gentamycin (Life Technologies, Gaithersburg, Md.), 2.7 μg/ml amphotericin B (fungizone)(Life Technologies, Gaithersburg, Md.), 5 U/ml sodium heparin (Fisher Scientific, Pittsburgh, Pa.) and 200 μg/ml endothelial cell growth supplement (ECGS) (Collaborative Research, Bedford, Mass.). Cells between passage 3 and 5 were used for all experiments. Human coronary artery endothelial cells (HCAECs) were grown on Nunclon dishes in the HUVEC media. Foreskin fibroblasts (Ffs) were grown in DMEM supplemented with 10% fetal bovine serum (Hyclone) on Falcon (Becton Dickinson, N.J.) dishes. HT1080 cells (human fibrosarcoma cell line) were grown in Falcon flasks in DMEM supplemented with 10% fetal bovine serum. Neutrophils were freshly isolated from buffy coats as previously reported (Kibbey et al., J. Cell Phys. 160:185, 1994). Human aortic smooth muscle cells (AOSMCs) were grown in smooth muscle cell media (Clonetics, San Diego, Calif.) on Nunclon dishes.
(§2) Several cell types were tested to determine if the migratory stimulation observed with Tα1 was specific. […] HUVEC migration assays were carried out in Boyden chambers using 12 ,m pore PVP free filters coated with either a 0.1 mg/ml or 0.05 mg/ml solution of collagen IV as previously reported (Malinda et al., FASEB J. 11:474, 1997). Each condition was assayed in triplicate wells at least three times unless indicated. HCAECs, AOSMCs, FFs, HT1080 cells and neutrophils were cultured or isolated and assayed for migration as previously reported (Malinda et al., FASEB J. 11:474, 1997).

HUVEC = assay: In vitro "scratch" wound closure assay; format: cell-based, human; settings: media alone 1%
Experimental: During angiogenesis the cells may be presented with a constant level of Tα1. The "scratch" wound closure assay was used to assess the potential effects of constant doses of Tα1 on cell migration. Confluent monolayers were "scratch" wounded using the tip of a universal blue pipette tip and rinsed with PBS. Tα1 (1, 10, 100, and 1000 ng/ml) or ECGS (200 μg/ml) was added to the wells in fresh media lacking ECGS but containing 10 mM thymidine to inhibit cell proliferation (Malinda et al., FASEB J. 11: 474, 1997). Antibody inhibition experiments were carried out as described above by wounding the cell monolayer and then adding either anti-Tα1 polyclonal antibody (1/25, 1/50 dilution) or pre-immune serum (1/25 dilution), or fresh media to the plate.

[2] = system: HT1080 cells (human fibrosarcoma cell line); assay: Boyden chamber migration, HT1080 cells; format: cell-based
Experimental: as §1, §2

[3] = system: human aortic smooth muscle cells; assay: Boyden chamber migration, aortic smooth muscle cells; format: cell-based; settings: for average number of cells that migrated ± SEM: AOSMC
Experimental: as §1, §2

thymosin α1 (SDAAVDTSSEITTKDLKEKKEVVEEAEN; not fully specified; ends and bridges not checked; UniProt P06454 2-29, looked up) [Tα1, 28 amino acid peptide which results from the cleavage of the N-terminal region of prothymosin α1]
increase in migration over media alone ([1]; 1000 ng of Tα1): 2 fold
migration ([1]; 1-100 ng doses): Significant migration
average number of cells that migrated ± SEM ([1]; Thymosin α1 1 ng/ml): 14 ± 0.3
average number of cells that migrated ± SEM ([1]; Thymosin α1 10 ng/ml): 16 ± 0.5
average number of cells that migrated ± SEM ([1]; Thymosin α1 100 ng/ml): 18 ± 0.4
average number of cells that migrated ± SEM ([1]; Thymosin α1 1000 ng/ml): 21 ± 0.4
wound closure (HUVEC; 100 ng/ml Tα1, 2 h): 7%
wound closure (HUVEC; 1000 ng/ml Tα1, 2 h after wounding): 14%
average number of cells that migrated ± SEM ([2]; HT1080, Thymosin α1 1 ng/ml): 2.4 ± 0.8
average number of cells that migrated ± SEM ([2]; HT1080, Thymosin α1 10 ng/ml): 1.8 ± 0.4
average number of cells that migrated ± SEM ([2]; HT1080, Thymosin α1 100 ng/ml): 1.3 ± 0.7
average number of cells that migrated ± SEM ([2]; HT1080, Thymosin α1 1000 ng/ml): 0.9 ± 0.4
migration toward Tα1 ([2]; HT1080 fibrosarcoma cells): did not demonstrate any significant migration
average number of cells that migrated ± SEM ([3]; Thymosin α1 1 ng/ml): 1 ± 0.3
average number of cells that migrated ± SEM ([3]; Thymosin α1 10 ng/ml): 1 ± 0.4
average number of cells that migrated ± SEM ([3]; Thymosin α1 100 ng/ml): 0.5 ± 0.5
average number of cells that migrated ± SEM ([3]; Thymosin α1 1000 ng/ml): 1 ± 0.4
migration toward Tα1 ([3]; human aortic smooth muscle cells): did not demonstrate any significant migration

Source: US6197751A, “Thymosin α1 promotes tissue repair, angiogenesis and cell migration” (The United States of America as represented by the …, priority 1998, dated 2001)
